IC50 and Activity data for nine molecules are collected here from ChEMBL document CHEMBL2331351, “5-Oxo-ETE receptor antagonists” (J Med Chem, 2013).

Holding throughout (assay type): functional
Assay [1] addresses T1, Oxoeicosanoid receptor 1 (Homo sapiens, UniProt Q8TDS5). Put plainly: Antagonist activity at OXE receptor in human neutrophils assessed as 5-oxo-ETE-induced Ca2+ mobilization incubated for 2 mins prior to 5-oxo-ETE addition measured after 1 min by spectrofluorimetric analysis. Background: Calcium assays in cells follow changes in intracellular calcium, usually with a dye or a luminescent sensor.

The target of assay [2] is T1, Oxoeicosanoid receptor 1. Put plainly: Antagonist activity at OXE receptor in human neutrophils assessed as 5-oxo-ETE-induced Ca2+ mobilization incubated for 2 mins prior to 5-oxo-ETE addition measured at 1 uM after 1 min by spectrofluorimetric analysis.
The target of assay [3] is T1, Oxoeicosanoid receptor 1. Put plainly: Antagonist activity at OXE receptor in human neutrophils assessed as LTB4-induced Ca2+ mobilization incubated for 2 mins prior to 5-oxo-ETE addition measured after 1 min by spectrofluorimetric analysis.
Assay [4] addresses T1, Oxoeicosanoid receptor 1. Put plainly: Antagonist activity at OXE receptor in human neutrophils assessed as induction of Ca2+ mobilization at 30 uM after 2 mins by spectrofluorimetric analysis.
Assay [5] has as its target T1, Oxoeicosanoid receptor 1. Put plainly: Antagonist activity at OXE receptor in human neutrophils assessed as 5-oxo-ETE-induced Ca2+ mobilization incubated for 2 mins prior to 5-oxo-ETE addition measured at 30 uM after 1 min by spectrofluorimetric analysis.
Assay [6] concerns the target T1, Oxoeicosanoid receptor 1. Put plainly: Agonist activity at OXE receptor in human neutrophils assessed as 5-oxo-ETE-induced Ca2+ mobilization incubated for 2 mins prior to 5-oxo-ETE addition measured after 1 min by spectrofluorimetric analysis.

Activity calls are given as the source filed them. No cut-off for these calls is given here.

T1 sequence (Q8TDS5 whole entry): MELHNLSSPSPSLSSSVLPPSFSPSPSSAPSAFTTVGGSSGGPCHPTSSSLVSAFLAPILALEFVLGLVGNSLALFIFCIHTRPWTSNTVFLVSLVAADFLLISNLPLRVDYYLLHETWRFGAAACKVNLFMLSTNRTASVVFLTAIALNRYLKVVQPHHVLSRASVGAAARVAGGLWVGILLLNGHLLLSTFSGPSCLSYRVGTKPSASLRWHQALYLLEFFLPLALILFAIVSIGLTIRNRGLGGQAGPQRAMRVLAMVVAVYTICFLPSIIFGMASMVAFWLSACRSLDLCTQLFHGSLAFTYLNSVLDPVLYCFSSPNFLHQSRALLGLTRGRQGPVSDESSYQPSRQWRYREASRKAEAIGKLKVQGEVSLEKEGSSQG

As for `CCCCCCc1ccc2c(ccn2C(=O)CCCC(=O)O)c1`, the IC50 (commonly the concentration that inhibits the measured activity by half) at Oxoeicosanoid receptor 1 [1] is 17.7 µM.
`CCCCCCc1cc2ccccc2n1C(=O)CCCC(=O)O`: the outcome at Oxoeicosanoid receptor 1 [2] was Active. In addition, on Oxoeicosanoid receptor 1 [3], the result was inactive. For the same molecule, the IC50 on Oxoeicosanoid receptor 1 [1] came to 1.55 µM.
For `CCCCCCc1cn(C(=O)CCCC(=O)O)c2ccccc12`, the IC50 at Oxoeicosanoid receptor 1 [1] came out at 20.7 µM.
In the case of `O=C(O)CCCC(=O)n1ccc2ccccc21`, the outcome on Oxoeicosanoid receptor 1 [4], on Oxoeicosanoid receptor 1 [5] and at Oxoeicosanoid receptor 1 [6] was inactive. Besides, at Oxoeicosanoid receptor 1 [1], the IC50 is greater than 30 µM.
`CCCCCCc1cccc2ccn(C(=O)CCCC(=O)O)c12`: at Oxoeicosanoid receptor 1 [1], the IC50 turned out to be 11.8 µM.
With `O=C(O)CCCC(=O)/C=C/c1cccc2ccccc12`, the result on Oxoeicosanoid receptor 1 [6] was inactive.
As to `CCCCCCc1ccc2ccn(C(=O)CCCC(=O)O)c2c1`, the concentration for half-maximal inhibition (IC50) at Oxoeicosanoid receptor 1 [1] is 18 µM.
As for `O=C(O)CCCc1cc2ccccc2o1`, on Oxoeicosanoid receptor 1 [6], the result was inactive.
Still for that read-out and setting: for `O=C(O)CCCC(=O)/C=C/c1ccccc1` the value was “inactive”.
